From patent US20120108500A1, “Compositions and Methods for Modulating Immunodeficiency Virus Transcription” (priority 2010, published 2012)

Key:
[1] = target: C-terminal FLAG tagged Tat protein (Tat/FLAG), expressed in cells (HIV) (UniProt P04608); assay: cell-based or functional assay
J-Lat A2 cells = assay: Cell viability of J-Lat A2 cells (propidium iodide-negative cells, flow cytometry); conditions: at the tested concentrations
Experimental: (§1) FIGS. 7A and 7B. LSD1/KDM1 is a potential drug target in HIV transcription. (A) J-Lat A2 cells were stimulated with 0.08 ng/ml of TNFα in the presence of increasing amounts of phenelzine (100, 300, 1000 or 3000 μM), DRB (0.3, 1, 3 or 10 μM) or dimethylsulfoxide (DMSO) as carrier control overnight. Numbers of GFP+ cells as well as propidium iodide (PI)-negative cells as a measure of intact cell viability were analyzed by flow cytometry. The percentage compared to DMSO-treated control cells was calculated. The average of two independent experiments is shown. (B) Purified resting primary CD4+ T cells were infected at a high multiplicity of infection (M.O.I.) with infectious HIV-NL4-3 luciferase reporter virus. Three days after infection, cells were stimulated with α-CD3 and α-CD28 antibodies in the presence of phenelzine (100, 300, or 1000 μM), DRB (1 or 10 μM) or DMSO overnight followed by analysis for luciferase activity and PI uptake.

[2] = system: HIV transcription in J-Lat A2 cells; assay: cells; assay type: cell-based; conditions: for effect on TNFα-mediated activation of gene expression: phenelzine 100-3000 μM, DRB 0.3-10 μM
Experimental: Culhane et al. (2010) J Am Chem Soc 132: 3164-3176. To test the activity of this agent in HIV infection, J-Lat A2 cells were treated with increasing amounts of phenelzine or the CDK inhibitor 5,6-dichloro-1-β-D-ribofuranosyl-1H-benzimidazole (DRB), a known Tat inhibitor.
as §1

[3] = system: HIV-1 NL4-3 luciferase reporter virus in primary CD4+ T cells
Experimental: as §1

primary CD4+ T cells = system: primary CD4+ T cells
Experimental: as §1

[4] = system: histone H3 dimethylated at lysine 4 (in purified total cellular histones)
[5] = target: synthetic Tat protein (aa 1-72), K51 monomethylated (UniProt P04608)

## endogenous LSD1/KDM1 (lysine-specific demethylase-1) in cells (from UniProt O60341 1-852) (enzyme)
[1]
  decrease in Tat transactivation of the HIV LTR luciferase reporter in HeLa cells after LSD1/KDM1 siRNA: 50%

## NNCCc1ccccc1 (racemic) [phenelzine, (±)-2-phenylethylhydrazine]
J-Lat A2 cells
  cell toxicity (PI-negative cells): No cell toxicity was observed
[2]; Human immunodeficiency virus 1, J-Lat A2, read-out: IC50, prevention of TNFα-mediated activation of gene expression (GFP+ cells)
  IC50: 300 µM
[2]; J-Lat A2 cells, TNFα-stimulated
  concentrations needed relative to DRB: ~150 fold
[2]; J-Lat A2 cells
  effect on TNFα-mediated activation of gene expression: prevented TNFα-mediated activation of gene expression in a dose-dependent manner
[3]; nonactivated primary T cells
  basal expression of luciferase: suppressed the basal expression of luciferase in nonactivated cells
[3]; primary CD4+ T cells of two donors, α-CD3/α-CD28 stimulation, phenelzine 100-1000 μM
  activation of luciferase expression: successfully suppressed
[3]; primary T cells
  suppression of HIV gene expression compared with DRB: more efficient in suppressing HIV gene expression than DRB
Primary CD4+ T cells
  cell viability (PI uptake): slight decrease in cell viability was observed in one donor

## OC[C@H]1O[C@@H](n2cnc3cc(Cl)c(Cl)cc32)[C@H](O)[C@@H]1O [DRB, 5,6-dichloro-1-β-D-ribofuranosyl-1H-benzimidazole]
J-Lat A2 cells
  cell toxicity (PI-negative cells): No cell toxicity was observed
[2]; J-Lat A2 cells
  effect on TNFα-mediated activation of gene expression: prevented TNFα-mediated activation of gene expression in a dose-dependent manner

## recombinant LSD1/KDM1 (His-tagged, prokaryotic expression)
[4]
  in vitro demethylation of purified histones, western blot with α-Me2H3K4: LSD1/KDM1 also demethylated its cognate substrate, dimethyl lysine 4 in histone H3, as expected
[5]
  in vitro demethylation, western blot with α-Me1K51 Tat antibodies: Recombinant LSD1/KDM1 demethylated synthetic monomethylated Tat in a dose-dependent manner
